Measured values: US20230141603A1, “BENZODIAZEPINE DERIVATIVES AS GABA A GAMMA1 PAM” (Hoffmann-La Roche Inc., priority 2021, published 2023)

target: T1, h-GABAA α1β2γ1 (Homo sapiens, UniProt P14867+Q8N1C3); assay: Radioligand binding assay, [3H]RO7239181 competition, HEK293F membranes
T1 construct: expressed in transfected cells; host or cells: HEK293F cells (ThermoFisher R79007), membranes
T1 sequence (P14867 28-456): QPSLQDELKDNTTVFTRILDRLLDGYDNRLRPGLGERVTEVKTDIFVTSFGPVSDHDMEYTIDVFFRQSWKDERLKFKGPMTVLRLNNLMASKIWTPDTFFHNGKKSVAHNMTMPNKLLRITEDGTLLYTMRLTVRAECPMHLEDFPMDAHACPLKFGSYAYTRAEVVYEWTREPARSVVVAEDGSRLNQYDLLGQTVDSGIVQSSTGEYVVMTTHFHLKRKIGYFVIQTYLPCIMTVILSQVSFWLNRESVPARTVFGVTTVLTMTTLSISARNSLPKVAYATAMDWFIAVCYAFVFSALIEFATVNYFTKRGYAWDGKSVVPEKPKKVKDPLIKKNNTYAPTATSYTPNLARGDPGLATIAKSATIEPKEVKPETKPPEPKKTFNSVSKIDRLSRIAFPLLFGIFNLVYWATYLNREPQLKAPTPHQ
T1 sequence (P47870 25-512 partner limits assumed): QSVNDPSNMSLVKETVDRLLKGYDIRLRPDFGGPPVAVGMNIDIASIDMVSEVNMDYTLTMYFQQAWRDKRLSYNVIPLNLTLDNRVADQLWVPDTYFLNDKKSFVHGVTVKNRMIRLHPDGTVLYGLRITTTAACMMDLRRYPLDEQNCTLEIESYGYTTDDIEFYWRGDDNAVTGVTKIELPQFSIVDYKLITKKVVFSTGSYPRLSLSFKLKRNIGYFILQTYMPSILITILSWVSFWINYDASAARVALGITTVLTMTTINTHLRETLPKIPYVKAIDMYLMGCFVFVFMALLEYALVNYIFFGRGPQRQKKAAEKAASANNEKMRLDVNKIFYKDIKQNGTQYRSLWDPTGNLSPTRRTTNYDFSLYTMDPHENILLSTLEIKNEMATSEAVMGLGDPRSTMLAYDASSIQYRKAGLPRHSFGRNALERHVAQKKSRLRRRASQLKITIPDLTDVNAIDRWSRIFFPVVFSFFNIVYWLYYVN
T1 sequence (Q8N1C3 36-465): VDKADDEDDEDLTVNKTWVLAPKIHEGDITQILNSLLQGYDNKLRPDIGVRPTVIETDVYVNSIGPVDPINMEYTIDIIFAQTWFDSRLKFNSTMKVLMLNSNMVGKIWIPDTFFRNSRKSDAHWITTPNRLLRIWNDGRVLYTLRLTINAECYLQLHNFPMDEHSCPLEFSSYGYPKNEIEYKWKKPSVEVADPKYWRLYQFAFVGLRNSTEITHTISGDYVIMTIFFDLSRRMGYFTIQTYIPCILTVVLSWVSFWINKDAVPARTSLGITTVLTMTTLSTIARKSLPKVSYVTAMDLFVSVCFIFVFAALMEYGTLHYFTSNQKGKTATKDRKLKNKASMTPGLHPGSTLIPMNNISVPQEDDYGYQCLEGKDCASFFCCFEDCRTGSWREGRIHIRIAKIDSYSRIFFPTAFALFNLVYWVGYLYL
Procedure: The affinity of compounds at GABAA γ1 subunit-containing receptors was measured by competition for [^3H]RO7239181 (67.3 Ci/mmol; Roche) binding to membranes from HEK293F cells (ThermoFisher R79007) expressing human (transiently transfected) receptors of composition […], α2β2γ1, α1β2γ1.
Harvested pellets from HEK293F cells expressing the different GABAA receptor subtypes were resuspended in Mannitol Buffer pH 7.2-7.4 (Mannitol 0.29M, Triethylamine 10 mM, Acetic acid 10 mM, EDTA 1 mM plus protease inhibitors (20 tablets Complete, Roche Diagnostics Cat. No. 05 056 489 001 per liter)), washed two times and then resuspended at 1:10 to 1:15 dilution in the same buffer. Cell disruption was performed by stirring the suspension in a Parr vessel #4637 at 435 psi for 15 minutes, and then the suspensions were centrifuged at 1000×g for 15 minutes at 4° C. (Beckman Avanti J-HC; rotor JS-4.2). The supernatant (S1) was transferred in a 21 Schott flask and the pellet (P1) was resuspended with Mannitol Buffer up to 175 ml. The resuspended pellet was transferred into a 250 ml Corning centrifugal beaker and centrifuged at 1500×g for 10 minutes at 4° C. (Beckman Avanti J-HC; rotor JS-4.2). The supernatant (S1) was then transferred in the 21 Schott flask and the pellet was discarded. The supernatants (S1) were centrifuged in 500 ml Beckman polypropylene centrifugal beaker at 15′000×g for 30 minutes at 4° C. (Beckman Avanti J-20 XP; rotor JLA-10.500). The pellet (P2) was resuspended with Mannitol Buffer 1:1 and frozen at −80° C. The supernatant (S2) was centrifuged in 100 ml Beckman polypropylene centrifugal tubes at 48000×g for 50 minutes at 4° C. (Beckman Avanti J-20 XP; rotor JA-18). The supernatant (S3) was discarded and the pellet (P3) was resuspended with 1:1 Mannitol Buffer. The P2 and P3 protein concentration was determined with the BIORAD Standard assay method with bovine serum albumin as standard and measured on the NANO-Drop 1000. The membrane suspension was aliquots (500 μl per tube) and stored at −80° C. until required. Membrane homogenates were resuspended and polytronised (Polytron PT1200E Kinematica AG) in Potassium Phosphate 10 mM, KCl 100 mM binding buffer at pH 7.4 to a final assay concentration determined with a previous experiment.
Assays were incubated to equilibrium for 1 hour at 4° C. and then, membranes were filtered onto unifilter (96-well white microplate with bonded GF/C filters preincubated 20-50 minutes in 0.3% Polyethylenimine) with a Filtermate 196 harvester (Packard BioScience) and washed 4 times with cold Potassium Phosphate 10 mM pH 7.4, KCl 100 mM binding buffer. After drying, filter-retained radioactivity was detected by liquid scintillation counting. Ki values were calculated using Excel-Fit (Microsoft) and are the means of two determinations.

Row | Structure (SMILES) | Ki [µM]
1 | Cc1nnc2n1-c1ccc(Br)c(Cl)c1C(c1c(F)cccc1F)=NC2 [Example 1, 8-bromo-7-chloro-6-(2,6-difluorophenyl)-1-methyl-4H-[1,2,4]triazolo[4,3-a][1,4]benzodiazepine] | 0.0113
2 | Fc1ccccc1C1=NCc2nnc(C3CC3)n2-c2ccc(Br)c(Cl)c21 [Example 2, 8-bromo-7-chloro-1-cyclopropyl-6-(2-fluorophenyl)-4H-[1,2,4]triazolo[4,3-a][1,4]benzodiazepine] | 0.0775
3 | Fc1ccccc1C1=NCc2nnc(-c3cccnn3)n2-c2ccc(Br)c(Cl)c21 [Example 3, 8-bromo-7-chloro-6-(2-fluorophenyl)-1-pyridazin-3-yl-4H-[1,2,4]triazolo[4,3-a][1,4]benzodiazepine] | 0.0261
4 | Cc1nnc2n1-c1ccc(Cl)c(Cl)c1C(c1ccccc1F)=NC2 [Example 4, 7,8-dichloro-6-(2-fluorophenyl)-1-methyl-4H-[1,2,4]triazolo[4,3-a][1,4]benzodiazepine] | 0.103
5 | Cc1nnc2n1-c1ccc(Cl)c(Cl)c1C(c1c(F)cccc1F)=NC2 [Example 5, 7,8-dichloro-6-(2,6-difluorophenyl)-1-methyl-4H-[1,2,4]triazolo[4,3-a][1,4]benzodiazepine] | 0.0082
6 | Cc1nnc2n1-c1ccc(C3CC3)c(Cl)c1C(c1c(F)cccc1F)=NC2 [Example 6, 7-chloro-8-cyclopropyl-6-(2,6-difluorophenyl)-1-methyl-4H-[1,2,4]triazolo[4,3-a][1,4]benzodiazepine] | 0.237
7 | Fc1cccc(F)c1C1=NCc2nncn2-c2ccc(Br)c(Cl)c21 [Example 7, 8-bromo-7-chloro-6-(2,6-difluorophenyl)-4H-[1,2,4]triazolo[4,3-a][1,4]benzodiazepine] | 0.0091
8 | Fc1ccccc1C1=NCc2nncn2-c2ccc(Br)c(Cl)c21 [Example 8, 8-bromo-7-chloro-6-(2-fluorophenyl)-4H-[1,2,4]triazolo[4,3-a][1,4]benzodiazepine] | 0.0438
9 | O=c1[nH]nc2n1-c1ccc(Cl)c(Cl)c1C(c1c(F)cccc1F)=NC2 [Example 9, 7,8-dichloro-6-(2,6-difluorophenyl)-2,4-dihydro-[1,2,4]triazolo[4,3-a][1,4]benzodiazepin-1-one] | 0.0073
10 | Fc1ccccc1C1=NCc2nnc(-c3cccnn3)n2-c2ccc(Cl)c(Cl)c21 [Example 10, 7,8-dichloro-6-(2-fluorophenyl)-1-pyridazin-3-yl-4H-[1,2,4]triazolo[4,3-a][1,4]benzodiazepine] | 0.0258
11 | Fc1cccc(F)c1C1=NCc2nnc(C3CCOCC3)n2-c2ccc(Cl)c(Cl)c21 [Example 11, 7,8-dichloro-6-(2,6-difluorophenyl)-1-tetrahydropyran-4-yl-4H-[1,2,4]triazolo[4,3-a][1,4]benzodiazepine] | 0.0603
12 | Fc1cccc(F)c1C1=NCc2nnc(-c3ccncn3)n2-c2ccc(Cl)c(Cl)c21 [Example 12, 7,8-dichloro-6-(2,6-difluorophenyl)-1-pyrimidin-4-yl-4H-[1,2,4]triazolo[4,3-a][1,4]benzodiazepine] | 0.0176
13 | O=c1[nH]nc2n1-c1ccc(Br)c(Cl)c1C(c1c(F)cccc1F)=NC2 [Example 13, 8-bromo-7-chloro-6-(2,6-difluorophenyl)-2,4-dihydro-[1,2,4]triazolo[4,3-a][1,4]benzodiazepin-1-one] | 0.0062
14 | Fc1cccc(F)c1C1=NCc2nnc(-c3cccnn3)n2-c2ccc(Cl)c(Cl)c21 [Example 14, 7,8-dichloro-6-(2,6-difluorophenyl)-1-pyridazin-3-yl-4H-[1,2,4]triazolo[4,3-a][1,4]benzodiazepine] | 0.0052
15 | Fc1cccc(F)c1C1=NCc2nncn2-c2ccc(Cl)c(Cl)c21 [Example 15, 7,8-dichloro-6-(2,6-difluorophenyl)-4H-[1,2,4]triazolo[4,3-a][1,4]benzodiazepine] | 0.0115
16 | Cc1ccc2c(c1Cl)C(c1c(F)cccc1F)=NCc1n[nH]c(=O)n1-2 [Example 16, 7-chloro-6-(2,6-difluorophenyl)-8-methyl-2,4-dihydro-[1,2,4]triazolo[4,3-a][1,4]benzodiazepin-1-one] | 0.0227
17 | Cc1ccc2c(c1Cl)C(c1c(F)cccc1F)=NCc1nncn1-2 [Example 17, 7-chloro-6-(2,6-difluorophenyl)-8-methyl-4H-[1,2,4]triazolo[4,3-a][1,4]benzodiazepine] | 0.0477
18 | Fc1ccccc1C1=NCc2nnc(-c3ccncn3)n2-c2ccc(Cl)c(Cl)c21 [Example 18, 7,8-dichloro-6-(2-fluorophenyl)-1-pyrimidin-4-yl-4H-[1,2,4]triazolo[4,3-a][1,4]benzodiazepine] | 0.0541
19 | COCCc1nnc2n1-c1ccc(Cl)c(Cl)c1C(c1c(F)cccc1F)=NC2 [Example 19, 7,8-dichloro-6-(2,6-difluorophenyl)-1-(2-methoxyethyl)-4H-[1,2,4]triazolo[4,3-a][1,4]benzodiazepine] | 0.0439
20 | Cc1ccc2c(c1Cl)C(c1c(F)cccc1F)=NCc1nnc(C)n1-2 [Example 20, 7-chloro-6-(2,6-difluorophenyl)-1,8-dimethyl-4H-[1,2,4]triazolo[4,3-a][1,4]benzodiazepine] | 0.0371
21 | CC(F)(F)c1ccc2c(c1Cl)C(c1c(F)cccc1F)=NCc1nncn1-2 [Example 21, 7-chloro-8-(1,1-difluoroethyl)-6-(2,6-difluorophenyl)-4H-[1,2,4]triazolo[4,3-a][1,4]benzodiazepine] | 0.0905
22 | Cc1nnc2n1-c1ccc(C(C)(F)F)c(Cl)c1C(c1c(F)cccc1F)=NC2 [Example 22, 7-chloro-8-(1,1-difluoroethyl)-6-(2,6-difluorophenyl)-1-methyl-4H-[1,2,4]triazolo[4,3-a][1,4]benzodiazepine] | 0.0687
23 | Fc1cccc(F)c1C1=NCc2nncn2-c2ccc(C(F)F)c(Cl)c21 [Example 23, 7-chloro-8-(difluoromethyl)-6-(2,6-difluorophenyl)-4H-[1,2,4]triazolo[4,3-a][1,4]benzodiazepine] | 0.0639
24 | Cc1nnc2n1-c1ccc(Br)c(Cl)c1C(c1ncccc1F)=NC2 [Example 24, 8-bromo-7-chloro-6-(3-fluoro-2-pyridyl)-1-methyl-4H-[1,2,4]triazolo[4,3-a][1,4]benzodiazepine] | 0.0436
